Results as given in ChEMBL document CHEMBL4049443, “Discovery of 2-[[2-Ethyl-6-[4-[2-(3-hydroxyazetidin-1-yl)-2-oxoethyl]piperazin-1-yl]-8-methylimidazo[1,2-a]pyridin-3-yl]methylamino]-4-(4-fluorophenyl)thiazole-5-carbonitrile (GLPG1690), a First-in-Class Autotaxin Inhibitor Undergoing Clinical Evaluation for the Treatment of Idiopathic Pulmonary …” (J Med Chem, 2017).

Tests used:
Autotaxin = Autotaxin (Homo sapiens, UniProt Q13822); assay: Inhibition of human ATX using LPC (16:0) as substrate after 30 mins by horseradish peroxidase/choline oxidase coupled enzyme based spectrophotometric analysis
[1] = biological target: Voltage-gated inwardly rectifying potassium channel KCNH2 (Homo sapiens, UniProt Q12809); assay: Inhibition of human ERG by automated patch clamp assay
Cytochrome P450 3A4 = Cytochrome P450 3A4 (Homo sapiens, UniProt P08684); assay: Time-dependent inhibition of human liver microsomes CYP3A4; type: ADME
Sequence of Cytochrome P450 3A4 (P08684 whole entry): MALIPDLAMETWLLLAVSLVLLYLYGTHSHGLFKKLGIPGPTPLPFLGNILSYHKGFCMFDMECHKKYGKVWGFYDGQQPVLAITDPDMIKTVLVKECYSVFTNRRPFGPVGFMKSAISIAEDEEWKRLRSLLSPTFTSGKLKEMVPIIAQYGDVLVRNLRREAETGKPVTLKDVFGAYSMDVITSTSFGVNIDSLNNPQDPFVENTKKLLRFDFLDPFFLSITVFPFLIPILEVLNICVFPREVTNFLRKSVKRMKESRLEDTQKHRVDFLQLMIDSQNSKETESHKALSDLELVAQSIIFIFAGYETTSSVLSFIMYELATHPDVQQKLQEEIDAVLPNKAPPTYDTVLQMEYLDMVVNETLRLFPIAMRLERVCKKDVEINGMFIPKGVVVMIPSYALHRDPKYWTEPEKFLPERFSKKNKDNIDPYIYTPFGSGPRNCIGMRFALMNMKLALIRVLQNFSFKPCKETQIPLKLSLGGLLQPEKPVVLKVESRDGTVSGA

Sequence of Voltage-gated inwardly rectifying potassium channel KCNH2 (Q12809 whole entry): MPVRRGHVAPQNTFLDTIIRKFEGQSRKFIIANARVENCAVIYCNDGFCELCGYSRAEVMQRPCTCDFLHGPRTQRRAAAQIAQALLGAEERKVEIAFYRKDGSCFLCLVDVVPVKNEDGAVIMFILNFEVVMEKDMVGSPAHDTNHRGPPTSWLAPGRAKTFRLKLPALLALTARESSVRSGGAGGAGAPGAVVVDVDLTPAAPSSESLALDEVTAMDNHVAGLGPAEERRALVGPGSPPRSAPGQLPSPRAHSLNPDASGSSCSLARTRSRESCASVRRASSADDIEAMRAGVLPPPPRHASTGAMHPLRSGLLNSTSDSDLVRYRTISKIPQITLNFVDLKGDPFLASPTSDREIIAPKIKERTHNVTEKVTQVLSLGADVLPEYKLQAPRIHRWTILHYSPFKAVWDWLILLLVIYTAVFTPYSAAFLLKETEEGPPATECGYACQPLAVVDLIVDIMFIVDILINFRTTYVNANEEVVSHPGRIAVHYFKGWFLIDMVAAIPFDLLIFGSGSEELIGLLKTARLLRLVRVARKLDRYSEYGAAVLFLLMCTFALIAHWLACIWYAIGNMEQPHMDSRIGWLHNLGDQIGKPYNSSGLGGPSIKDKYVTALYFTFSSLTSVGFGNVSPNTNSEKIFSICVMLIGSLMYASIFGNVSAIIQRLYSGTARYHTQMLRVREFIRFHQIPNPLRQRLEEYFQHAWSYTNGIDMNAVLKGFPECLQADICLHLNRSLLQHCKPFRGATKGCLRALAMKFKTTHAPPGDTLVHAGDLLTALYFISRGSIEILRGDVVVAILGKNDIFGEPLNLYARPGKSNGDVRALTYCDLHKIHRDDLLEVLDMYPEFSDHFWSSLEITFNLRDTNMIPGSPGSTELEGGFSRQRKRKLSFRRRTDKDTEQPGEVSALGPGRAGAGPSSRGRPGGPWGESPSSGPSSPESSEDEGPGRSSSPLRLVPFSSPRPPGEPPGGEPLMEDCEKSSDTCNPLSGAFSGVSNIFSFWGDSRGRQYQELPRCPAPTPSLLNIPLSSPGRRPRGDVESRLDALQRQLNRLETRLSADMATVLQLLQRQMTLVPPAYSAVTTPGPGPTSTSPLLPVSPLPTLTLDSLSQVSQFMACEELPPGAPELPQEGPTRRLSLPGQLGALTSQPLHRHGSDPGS

Compound: CCc1nc2ccc(N3CCN(CC(=O)N4CC(O)C4)CC3)cn2c1N(C)c1nc(-c2ccc(F)cc2)c(C#N)s1
- IC50 (Autotaxin): 26 nM
- IC50 [1]: > 11000 nM
- TDI (Cytochrome P450 3A4): Active
